Where a chain is given by its changes, count along the chain named. Like-named read-outs stand apart in the source and are kept apart here.
What was measured:
Format in all cases: binding
[1] = target: T1, TAF3 P881E (GST-tagged PHD) (Mus musculus, UniProt Q5HZG4, P881E); experiment: ITC of GST-tagged Taf3-PHD P881E
T1 construct: Mus musculus Taf3-PHD domain (residues 857–924); made in house; host or cells: E. coli BL21(DE3)
T1 sequence (Q5HZG4 857-924 P881E): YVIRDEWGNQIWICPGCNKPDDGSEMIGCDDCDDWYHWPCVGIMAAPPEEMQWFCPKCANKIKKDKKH
Description: (§1) The coding sequences of Mus musculus Taf3-PHD domain (residues 857–924) and Homosapiens PHF2 (1–66), PHF8 (37–102), and BPTF(2) (2865–2921) were cloned into the pGEX2T-derived vector, pRP265NB, for bacterial expression of GST-tagged proteins. Note that the PHD fingers of M. musculus Taf3 and H. sapiens TAF3 differ in a single amino acid. A901 in mouse corresponds to T899 in human. Here, amino acid numbering corresponds to mouse Taf3 isoform 1 with UniProt ID: Q5HZG4, accessible at https://www.uniprot.org/uniprotkb/Q5HZG4/entry. Single or double mutations were introduced by mutagenesis polymerase chain reaction and validated by Sanger sequencing. A single colony of freshly transformed BL21(DE3) Escherichia coli bacteria with the corresponding construct was grown in Luria broth (LB) medium supplemented with 50 μg/ml ampicillin until an OD600 of 0.7. […]
(§2) ITC experiments were performed at 20°C with a MicroCal VP-ITC microcalorimeter (Malvern) by sequential injection of 10 μl at 300 μM histone peptide during 20 s into the sample cell containing 30 or 15 μM of GST-Taf3 (wild type or mutant) or GST-BPTF, GST-PHF2, and GST-PHF8 PHDs in ITC buffer (100 mM NaCl, 20 mM Tris–HCl, pH 7.5). […] ITC data were subsequently analysed and fitted with the one-site binding model in the MicroCal ITC Origin Analysis software 7.0 (Table 1, Figs 3B and 5A, Supplementary Table S3, and Supplementary Fig. S10). […]

[2] = target: T2, BPTF(2) PHD (2865–2921, GST-tagged) (Homo sapiens, UniProt Q12830); experiment: ITC of GST-tagged BPTF(2) PHD
T2 construct: BPTF(2) (2865–2921); made in house; host or cells: E. coli BL21(DE3)
Description: as §1, §2

[3] = target: T3, TAF3 P881F (GST-tagged PHD) (Mus musculus, UniProt Q5HZG4, P881F); experiment: ITC of GST-tagged Taf3-PHD P881F
T3 construct: Mus musculus Taf3-PHD domain (residues 857–924); made in house; host or cells: E. coli BL21(DE3)
T3 sequence (Q5HZG4 857-924 P881F): T1 sequence (Q5HZG4 857-924 P881E) with E25F
Description: as §1, §2

[4] = target: T4, TAF3 A902L (GST-tagged PHD) (Mus musculus, UniProt Q5HZG4, A902L); experiment: ITC of GST-tagged Taf3-PHD A902L
T4 construct: Mus musculus Taf3-PHD domain (residues 857–924); made in house; host or cells: E. coli BL21(DE3)
T4 sequence (Q5HZG4 857-924 A902L): T1 sequence (Q5HZG4 857-924 P881E) with E25P, A46L
Description: as §1, §2

[5] = target: T5, TAF3 W894I (GST-tagged PHD) (Mus musculus, UniProt Q5HZG4, W894I); experiment: ITC of GST-tagged Taf3-PHD W894I
T5 construct: Mus musculus Taf3-PHD domain (residues 857–924); made in house; host or cells: E. coli BL21(DE3)
T5 sequence (Q5HZG4 857-924 W894I): T1 sequence (Q5HZG4 857-924 P881E) with E25P, W38I
Description: as §1, §2

[6] = target: T6, TAF3 WT (GST-tagged Taf3-PHD, residues 857–924) (Mus musculus, UniProt Q5HZG4); experiment: ITC of GST-tagged Taf3-PHD wild type
T6 construct: Mus musculus Taf3-PHD domain (residues 857–924); made in house; host or cells: E. coli BL21(DE3)
T6 sequence (Q5HZG4 857-924): T1 sequence (Q5HZG4 857-924 P881E) with E25P
Description: as §1, §2

[7] = target: T7, PHF2 PHD (1–66, GST-tagged) (Homo sapiens, UniProt O75151); experiment: ITC of GST-tagged PHF2 PHD
T7 construct: PHF2 (1–66); made in house; host or cells: E. coli BL21(DE3)
T7 sequence (O75151 1-66): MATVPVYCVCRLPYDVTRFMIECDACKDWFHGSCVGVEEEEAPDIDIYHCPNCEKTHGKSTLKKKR
Description: as §1, §2

[8] = ITC, 20°C, 100 mM NaCl, 20 mM Tris–HCl, pH 7.5, one-site model, ± = standard error of fit, read-out: K D

C[C@H](N)C(=O)N[C@@H](CCCNC(=N)N)C(=O)N[C@H](C(=O)N[C@@H](CCCC[N+](C)(C)C)C(=O)N[C@@H](CCC(N)=O)C(=O)N[C@H](C(=O)N[C@@H](C)C(=O)N[C@@H](CCCNC(=N)N)C(=O)N[C@@H](CCCCN)C(=O)N[C@@H](CO)C(=O)N[C@H](C(=O)NCC(N)=O)[C@@H](C)O)[C@@H](C)O)[C@@H](C)O [H3K4me3]
Kd [1, 8]: 148 ± 4 nM
Kd [2, 8]: 1300 ± 49 nM
Kd [3, 8]: 130 ± 4 nM
Kd [4, 8]: 166 ± 17 nM
Kd [5, 8]: 279 ± 17 nM
Kd ([6]; ITC, 20°C, 100 mM NaCl, 20 mM Tris–HCl, pH 7.5, 300 μM peptide into 30 or 15 μM GST-PHD, one-site model, ± = standard error of fit, representative experiment, read-out: K D): 260 ± 16 nM
Kd [7, 8]: 286 ± 23 nM

C[C@H](N)C(=O)N[C@@H](CCCNC(=N)N)C(=O)N[C@H](C(=O)N[C@@H](CCCC[N+](C)(C)C)C(=O)N[C@@H](CCC(=O)NCCc1c[nH]c2ccc(O)cc12)C(=O)N[C@H](C(=O)N[C@@H](C)C(=O)N[C@@H](CCCNC(=N)N)C(=O)N[C@@H](CCCCN)C(=O)N[C@@H](CO)C(=O)N[C@H](C(=O)NCC(N)=O)[C@@H](C)O)[C@@H](C)O)[C@@H](C)O [H3K4me3Q5ser]
Kd [1]: 136 ± 4 nM
Kd [2]: 1240 ± 50 nM
Kd [3]: 124 ± 7 nM
Kd [4]: 51 ± 3 nM
Kd [5]: 106 ± 8 nM
Kd [6]: 98 ± 8 nM
Kd [7]: 201 ± 22 nM
